Assay results as given in PubChem BioAssay (NCI).
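Compound exposure: 48 hours, 5 concentrations, 96-well plates. GI50 = concentration required for 50% inhibition of growth. At the TGI there is no net growth.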

Tests used:
Test in all cases: growth of human tumour cells (NCI), 48 h
786-0 renal = test system: 786-0 renal
A498 renal = test system: A498 renal
A549 NSCLC = test system: A549 NSCLC
ACHN renal = test system: ACHN renal
BT-549 breast = test system: BT-549 breast
CAKI-1 renal = test system: CAKI-1 renal
CCRF-CEM leukemia = test system: CCRF-CEM leukemia
COLO 205 colon = test system: COLO 205 colon
DU-145 prostate = test system: DU-145 prostate
EKVX NSCLC = test system: EKVX NSCLC
HCC-2998 colon = test system: HCC-2998 colon
HCT-116 colon = test system: HCT-116 colon
HCT-15 colon = test system: HCT-15 colon
HL-60(TB) leukemia = test system: HL-60(TB) leukemia
HOP-62 NSCLC = test system: HOP-62 NSCLC
HOP-92 NSCLC = test system: HOP-92 NSCLC
HS 578T breast = test system: HS 578T breast
HT29 colon = test system: HT29 colon
IGROV1 ovarian = test system: IGROV1 ovarian
K-562 leukemia = test system: K-562 leukemia
KM12 colon = test system: KM12 colon
LOX IMVI melanoma = test system: LOX IMVI melanoma
M14 melanoma = test system: M14 melanoma
MALME-3M melanoma = test system: MALME-3M melanoma
MCF7 breast = test system: MCF7 breast
MDA-MB-231 breast = test system: MDA-MB-231 breast
MDA-MB-435 = test system: MDA-MB-435
MOLT-4 leukemia = test system: MOLT-4 leukemia
NCI-H226 lung = test system: NCI-H226 lung
NCI-H23 lung = test system: NCI-H23 lung
NCI-H460 lung = test system: NCI-H460 lung
NCI-H522 lung = test system: NCI-H522 lung
NCI/ADR-RES ovarian = test system: NCI/ADR-RES ovarian
OVCAR-3 ovarian = test system: OVCAR-3 ovarian
OVCAR-4 ovarian = test system: OVCAR-4 ovarian
OVCAR-5 ovarian = test system: OVCAR-5 ovarian
OVCAR-8 ovarian = test system: OVCAR-8 ovarian
PC-3 prostate = test system: PC-3 prostate
RPMI-8226 leukemia = test system: RPMI-8226 leukemia
RXF 393 renal = test system: RXF 393 renal
SF-268 CNS = test system: SF-268 CNS
SF-295 CNS = test system: SF-295 CNS
SF-539 CNS = test system: SF-539 CNS
SK-MEL-2 melanoma = test system: SK-MEL-2 melanoma
SK-MEL-28 melanoma = test system: SK-MEL-28 melanoma
SK-MEL-5 melanoma = test system: SK-MEL-5 melanoma
SK-OV-3 ovarian = test system: SK-OV-3 ovarian
SN12C renal = test system: SN12C renal
SNB-19 CNS = test system: SNB-19 CNS
SNB-75 CNS = test system: SNB-75 CNS
SW-620 colon = test system: SW-620 colon
T-47D breast = test system: T-47D breast
TK-10 renal = test system: TK-10 renal
U251 CNS = test system: U251 CNS
UACC-257 melanoma = test system: UACC-257 melanoma
UACC-62 melanoma = test system: UACC-62 melanoma
UO-31 renal = test system: UO-31 renal

Which GI50 (786-0 renal) does the source give for `CC([C@H]1CCC2C3CCC4C[C@@H](NC=O)CC[C@]4(C)C3CC[C@@]21C)N(C)C` (some centres undefined) here?
Its GI50 is 1990 nM.

What about the TGI (786-0 renal) of the same compound?
Its TGI is 4.15 µM.

And the GI50 (A498 renal)?
Its GI50 is 2510 nM.

What about the TGI (A498 renal) of the same compound?
Its TGI is 11.9 µM.

And the GI50 (A549 NSCLC)?
The GI50 was 3.32 µM.

And the TGI (A549 NSCLC)?
The TGI was 11.5 µM.

What about the GI50 (ACHN renal) of the same compound?
Its GI50 is 5.17 µM.

What about the TGI (ACHN renal) of the same compound?
The TGI was 18 µM.

What about the GI50 (BT-549 breast) of the same compound?
Its GI50 is 6.95 µM.

What about the TGI (BT-549 breast) of the same compound?
The TGI was 25.1 µM.

And the GI50 (CAKI-1 renal)?
The GI50 was 4.26 µM.

And the TGI (CAKI-1 renal)?
Its TGI is 11.9 µM.

What about the GI50 (CCRF-CEM leukemia) of the same compound?
The GI50 was 2310 nM.

And the TGI (CCRF-CEM leukemia)?
Its TGI is 10.9 µM.

And the GI50 (COLO 205 colon)?
The GI50 was 1540 nM.

And the TGI (COLO 205 colon)?
The TGI was 3.11 µM.

What about the GI50 (DU-145 prostate) of the same compound?
The GI50 was 4.84 µM.

What about the TGI (DU-145 prostate) of the same compound?
The TGI was 17.5 µM.

What about the GI50 (EKVX NSCLC) of the same compound?
Its GI50 is 2640 nM.

And the TGI (EKVX NSCLC)?
Its TGI is 19.1 µM.

And the GI50 (HCC-2998 colon)?
The GI50 was 2480 nM.

And the TGI (HCC-2998 colon)?
The TGI was 7.29 µM.

And the GI50 (HCT-116 colon)?
Its GI50 is 1540 nM.

And the TGI (HCT-116 colon)?
The TGI was 3.22 µM.

And the GI50 (HCT-15 colon)?
Its GI50 is 1560 nM.

And the TGI (HCT-15 colon)?
Its TGI is 4.66 µM.

What about the GI50 (HL-60(TB) leukemia) of the same compound?
Its GI50 is 2230 nM.

And the TGI (HL-60(TB) leukemia)?
Its TGI is 6.79 µM.

And the GI50 (HOP-62 NSCLC)?
Its GI50 is 2150 nM.

What about the TGI (HOP-62 NSCLC) of the same compound?
Its TGI is 5.19 µM.

And the GI50 (HOP-92 NSCLC)?
Its GI50 is 1130 nM.

What about the TGI (HOP-92 NSCLC) of the same compound?
The TGI was 7.61 µM.

What about the GI50 (HS 578T breast) of the same compound?
Its GI50 is 2690 nM.

And the TGI (HS 578T breast)?
Its TGI is 12 µM.

And the GI50 (HT29 colon)?
Its GI50 is 595 nM.

What about the TGI (HT29 colon) of the same compound?
Its TGI is 2420 nM.

What about the GI50 (IGROV1 ovarian) of the same compound?
Its GI50 is 4.81 µM.

And the TGI (IGROV1 ovarian)?
Its TGI is 18.2 µM.

What about the GI50 (K-562 leukemia) of the same compound?
The GI50 was 862 nM.

What about the TGI (K-562 leukemia) of the same compound?
Its TGI is 3.18 µM.

And the GI50 (KM12 colon)?
The GI50 was 3.14 µM.

And the TGI (KM12 colon)?
Its TGI is 12.6 µM.

And the GI50 (LOX IMVI melanoma)?
The GI50 was 1530 nM.

What about the TGI (LOX IMVI melanoma) of the same compound?
The TGI was 3.37 µM.

What about the GI50 (M14 melanoma) of the same compound?
The GI50 was 1870 nM.

What about the TGI (M14 melanoma) of the same compound?
The TGI was 3.55 µM.

And the GI50 (MALME-3M melanoma)?
Its GI50 is 2180 nM.

And the TGI (MALME-3M melanoma)?
The TGI was 4.83 µM.

And the GI50 (MCF7 breast)?
Its GI50 is 2060 nM.

What about the TGI (MCF7 breast) of the same compound?
Its TGI is 7.26 µM.

And the GI50 (MDA-MB-231 breast)?
Its GI50 is 2380 nM.

And the TGI (MDA-MB-231 breast)?
Its TGI is 5.89 µM.

What about the GI50 (MDA-MB-435) of the same compound?
Its GI50 is 2290 nM.

What about the TGI (MDA-MB-435) of the same compound?
The TGI was 5.86 µM.

And the GI50 (MOLT-4 leukemia)?
Its GI50 is 1840 nM.

What about the TGI (MOLT-4 leukemia) of the same compound?
The TGI was 8.71 µM.

And the GI50 (NCI-H226 lung)?
The GI50 was 5.47 µM.

What about the TGI (NCI-H226 lung) of the same compound?
The TGI was 21 µM.

And the GI50 (NCI-H23 lung)?
The GI50 was 4.73 µM.

And the TGI (NCI-H23 lung)?
Its TGI is 19 µM.

And the GI50 (NCI-H460 lung)?
The GI50 was 1890 nM.

And the TGI (NCI-H460 lung)?
Its TGI is 4.04 µM.

And the GI50 (NCI-H522 lung)?
Its GI50 is 4.53 µM.

What about the TGI (NCI-H522 lung) of the same compound?
Its TGI is 17.6 µM.

What about the GI50 (NCI/ADR-RES ovarian) of the same compound?
Its GI50 is 6.02 µM.

What about the TGI (NCI/ADR-RES ovarian) of the same compound?
The TGI was 21.4 µM.

And the GI50 (OVCAR-3 ovarian)?
Its GI50 is 2550 nM.

And the TGI (OVCAR-3 ovarian)?
Its TGI is 9.01 µM.

What about the GI50 (OVCAR-4 ovarian) of the same compound?
Its GI50 is 4.72 µM.

What about the TGI (OVCAR-4 ovarian) of the same compound?
Its TGI is 23.1 µM.

What about the GI50 (OVCAR-5 ovarian) of the same compound?
Its GI50 is 6.87 µM.

And the TGI (OVCAR-5 ovarian)?
The TGI was 19.3 µM.

And the GI50 (OVCAR-8 ovarian)?
Its GI50 is 6.48 µM.

And the TGI (OVCAR-8 ovarian)?
Its TGI is greater than 46.4 µM.

And the GI50 (PC-3 prostate)?
Its GI50 is 2470 nM.

And the TGI (PC-3 prostate)?
The TGI was 16.4 µM.

And the GI50 (RPMI-8226 leukemia)?
The GI50 was 1910 nM.

What about the TGI (RPMI-8226 leukemia) of the same compound?
Its TGI is 6.6 µM.

And the GI50 (RXF 393 renal)?
The GI50 was 1770 nM.

What about the TGI (RXF 393 renal) of the same compound?
Its TGI is 4.15 µM.

What about the GI50 (SF-268 CNS) of the same compound?
Its GI50 is 1700 nM.

What about the TGI (SF-268 CNS) of the same compound?
The TGI was 3.93 µM.

And the GI50 (SF-295 CNS)?
The GI50 was 2140 nM.

And the TGI (SF-295 CNS)?
The TGI was 5.58 µM.

And the GI50 (SF-539 CNS)?
Its GI50 is 1370 nM.

What about the TGI (SF-539 CNS) of the same compound?
The TGI was 2790 nM.

And the GI50 (SK-MEL-2 melanoma)?
The GI50 was 5.71 µM.

And the TGI (SK-MEL-2 melanoma)?
Its TGI is 13.8 µM.

What about the GI50 (SK-MEL-28 melanoma) of the same compound?
The GI50 was 1650 nM.

What about the TGI (SK-MEL-28 melanoma) of the same compound?
The TGI was 3.08 µM.

And the GI50 (SK-MEL-5 melanoma)?
The GI50 was 1370 nM.

And the TGI (SK-MEL-5 melanoma)?
The TGI was 2740 nM.

And the GI50 (SK-OV-3 ovarian)?
The GI50 was 3.96 µM.

What about the TGI (SK-OV-3 ovarian) of the same compound?
Its TGI is 13.5 µM.

And the GI50 (SN12C renal)?
The GI50 was 2880 nM.

And the TGI (SN12C renal)?
Its TGI is 13.7 µM.

What about the GI50 (SNB-19 CNS) of the same compound?
Its GI50 is 7.08 µM.

What about the TGI (SNB-19 CNS) of the same compound?
Its TGI is 19.5 µM.

And the GI50 (SNB-75 CNS)?
Its GI50 is 4.68 µM.

And the TGI (SNB-75 CNS)?
The TGI was 18.2 µM.

And the GI50 (SW-620 colon)?
The GI50 was 1850 nM.

And the TGI (SW-620 colon)?
The TGI was 3.95 µM.

What about the GI50 (T-47D breast) of the same compound?
Its GI50 is 1760 nM.

What about the TGI (T-47D breast) of the same compound?
Its TGI is 5.94 µM.

What about the GI50 (TK-10 renal) of the same compound?
The GI50 was 10.1 µM.

What about the TGI (TK-10 renal) of the same compound?
Its TGI is 24.7 µM.

What about the GI50 (U251 CNS) of the same compound?
Its GI50 is 2960 nM.

And the TGI (U251 CNS)?
Its TGI is 13.8 µM.

And the GI50 (UACC-257 melanoma)?
The GI50 was 2570 nM.

And the TGI (UACC-257 melanoma)?
Its TGI is 6.24 µM.

And the GI50 (UACC-62 melanoma)?
The GI50 was 2040 nM.

And the TGI (UACC-62 melanoma)?
Its TGI is 4.08 µM.

What about the GI50 (UO-31 renal) of the same compound?
The GI50 was 1490 nM.

What about the TGI (UO-31 renal) of the same compound?
The TGI was 3.12 µM.
